The source of these data is patent publication US20040067927A1, “Substituted alkyldiamines” (priority 2003, published 2004).

Square brackets hold non-standard residues; d marks the D form. Peptide text beside a SMILES is read from it. * marks the point of attachment. Sta = CC(C)C[C@H](N)[C@@H](O)CC(=O)O; Isovaleryl = CC(C)CC(=O)*

The target in one assay is plasmepsin II (Plasmodium falciparum, UniProt P46925). Kind of assay: FRET assay for plasmepsin II. It counts as biochemical. To be noted: pH 5, 37° C., 40 min, substrate 1 μM. Here is the method: The fluorescence resonance energy transfer (FRET) assay for HIV, plasmepsin II, human cathepsin D and human cathepsin E.
The assay conditions were selected according, to reports in the literature. The FRET assay was performed in white polysorp plates (Fluoronunc, cat n° 437842 A). The assay buffer consisted of 50 mM Na acetate pH 5, 12,5% glycerol, 0.1% BSA+392 mM NaCl (for HIV-protease). The incubates per well were composed of:
10 μl inhibitor (in DMSO)
10 μl of the corresponding substrate in DMSO (see table A) to a final concentration of 1 μM
20 μl of enzyme to a final amount of x ng per assay tube (x=10 ng/assay tube plasmepsin II, x=100 ng/assay tube HIV-protease, x=10 ng/assay tube human cathepsin E and x=20 ng/assay tube human cathepsin D)
The reactions were initiated by addition of the enzyme. The assay was incubated at 37° C. for 30 min (for human cathepsin E), 40 min (for plasmepsin II and HIV-protease) or 120 min (for human cathepsin D). The reactions were stopped by adding 10% (v/v) of a 1 M solution of Tris-base. Product-accumulation was monitored by measuring the fluorescence at 460 nm.
Auto-fluorescence of all the test substances is determined in assay buffer in the absence of substrate and enzyme and this value was subtracted from the final signal.

The next assay concerns P. falciparum. The following applies: cited from earlier work.

Chain of plasmepsin II (P46925 125-453): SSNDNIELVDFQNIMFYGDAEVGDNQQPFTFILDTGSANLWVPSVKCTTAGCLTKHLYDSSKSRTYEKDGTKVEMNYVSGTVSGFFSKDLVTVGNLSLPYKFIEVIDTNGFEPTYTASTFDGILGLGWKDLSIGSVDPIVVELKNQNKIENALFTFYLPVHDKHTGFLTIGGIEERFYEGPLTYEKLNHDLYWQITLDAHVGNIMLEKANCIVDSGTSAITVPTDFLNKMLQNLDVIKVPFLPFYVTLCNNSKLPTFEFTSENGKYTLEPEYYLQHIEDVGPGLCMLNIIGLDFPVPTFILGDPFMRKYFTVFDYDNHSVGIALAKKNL

On to `CCCCCc1ccc(C(=O)N(CCN(CCCC)CCCC)Cc2ccc(OCc3ccccc3)cc2)cc1` [Example 1], for which, on plasmepsin II, the IC50 was determined as 115 nM. In other words, the sub-micromolar range.
Take `CCCCCc1ccc(CN(CCN(CCCC)CCCC)Cc2ccc(OCc3ccccc3)cc2)cc1` [Example 20]: the IC50 on plasmepsin II was found to be 846 nM.
Regarding `CCCCCc1ccc(C(=O)N(CCN(CCCC)CCCC)Cc2ccc(Oc3ccccc3)cc2)cc1` [Example 21], the IC50 against plasmepsin II came to 469 nM.
`CCCCCc1ccc(C(=O)N(CCN(CCCC)CCCC)Cc2ccc(OCc3ccccc3)c(OCc3ccccc3)c2)cc1` [Example 22] came in with an IC50 against plasmepsin II of 858 nM.
For the compound `CCCCCc1ccc(C(=O)N(CCN(CCCC)CCCC)Cc2ccc(-c3ccccc3)cc2)cc1` [Example 23], 252 nM corresponded to half-maximal inhibition against plasmepsin II (IC50).
On to `CCCCCc1ccc(C(=O)N(CCN(CCCC)CCCC)Cc2ccc(C(F)(F)F)cc2)cc1` [Example 25], for which half-maximal inhibition on plasmepsin II (IC50) required 596 nM.
The compound `CCCCCc1ccc(C(=O)N(CCN(CCCC)CCCC)Cc2ccc(OCCCC)cc2)cc1` [Example 38] gave an IC50 on plasmepsin II of 325 nM.
The same measure, in the same setting: the figure for `CCCCCc1ccc(C(=O)N(CCCN(CCCC)CCCC)Cc2ccc(OCc3ccccc3)cc2)cc1` [Example 51] is 691 nM.
In turn, `CCCCCc1ccc(C(=O)N(CCCN(CCCC)CCCC)Cc2ccc(-c3ccccc3)cc2)cc1` [Example 52] returned an IC50 at plasmepsin II of 834 nM.
On plasmepsin II, `CCCCCc1ccc(C(=O)N(CCN(CCCC)CCCC)Cc2ccc(-c3ccc(OCCO)cc3)cc2)cc1` [Example 53] returned an IC50 of 125 nM. This IC50 lies about 6.7-fold lower than the previous one.
In turn, `CCCCCc1ccc(C(=O)N(CCN(CCCC)CCCC)Cc2ccc(-c3ccccc3F)cc2)cc1` [Example 54] registered an IC50 against plasmepsin II of 312 nM.
Still for that read-out and setting: the figure for `CCCCCc1ccc(C(=O)N(CCN(CCCC)CCCC)Cc2ccc(-c3ccccc3Cl)cc2)cc1` [Example 56] is 659 nM; for `CCCCCc1ccc(C(=O)N(CCN(CCCC)CCCC)Cc2ccc(-c3cncnc3)cc2)cc1` [Example 57] it is 351 nM; for `CCCCCc1ccc(C(=O)N(CCN(CCCC)CCCC)Cc2ccc(-c3cccc(OC(F)(F)F)c3)cc2)cc1` [Example 58] it is 754 nM.
Compound `CCCCCc1ccc(C(=O)N(CCN(CCCC)CCCC)Cc2ccc(-c3ccccn3)cc2)cc1` [Example 59] yielded an IC50 at plasmepsin II of 380 nM.
Compound `CCCCCc1ccc(C(=O)N(CCN(CCCC)CCCC)Cc2ccc(-c3ccc(CC(=O)OC)cc3)cc2)cc1` [Example 60] had an IC50 at plasmepsin II of 198 nM.
`CCCCCc1ccc(C(=O)N(CCN(CCCC)CCCC)Cc2ccc(-c3ccc4c(c3)OCO4)cc2)cc1` [Example 61] gave an IC50 against plasmepsin II of 57 nM. This IC50 lies about 3.5-fold lower than the previous one.
On plasmepsin II, `CCCCCc1ccc(CN(CCN(CCCC)CCCC)Cc2ccc(-c3ccc(C#N)cc3)cc2)cc1` [Example 68] returned an IC50 of 714 nM.
Same read-out and setting: in the case of `CCCCCc1ccc(C(=O)N(CCN(CCO)CCO)Cc2ccc(OCC)cc2)cc1` [Example 69] it was 8230 nM.
Regarding `CC(C)CC(=O)N[C@H](C(=O)N[C@H](C(=O)N[C@@H](CC(C)C)[C@@H](O)CC(=O)N[C@@H](C)C(=O)N[C@@H](CC(C)C)[C@@H](O)CC(=O)O)C(C)C)C(C)C` [Pepstatin] (Isovaleryl-VV[Sta]A[Sta]-OH), the “growth of P. falciparum in red blood cells in vitro” value with P. falciparum is recorded as “inhibits the growth”.
